Results reported in ChEMBL document CHEMBL5608163, “Structure modification of anoplin for fighting resistant bacteria” (Eur J Med Chem, 2024).
Values after ≈ are worked out from the molar mass of the structure shown. Peptide text beside a SMILES is read from it.

Assays:
Pseudomonas aeruginosa [1] = assay: Antibacterial activity against Pseudomonas aeruginosa ATCC 15442 assessed as reduction in bacterial cell growth incubated for 18 hrs by two fold serial microdilution method; assay type: functional
[2] = Hemolytic activity in human RBC assessed as hemolysis; assay type: toxicity, cell-based, Erythrocyte; details: red blood cells
Enterococcus faecium [3] = assay: Antibacterial activity against Enterococcus faecium; assay type: functional
Pseudomonas aeruginosa [4] = assay: Antibacterial activity against multi-drug resistant Pseudomonas aeruginosa clinical isolate 119 assessed as reduction in bacterial growth measured after 18 to 24 hrs by CLSI protocol-based Mueller-Hinton broth dilution method; assay type: functional; details: time 18-24 hrs
Staphylococcus aureus [5] = assay: Antibacterial activity against Staphylococcus aureus ATCC 25923 assessed as reduction in bacterial growth measured after 18 to 24 hrs by CLSI protocol-based Mueller-Hinton broth dilution method; assay type: functional; details: time 18-24 hrs
Staphylococcus aureus [6] = assay: Antibacterial activity against Staphylococcus aureus ATCC 25923 assessed as bacterial growth inhibition measured for 18 hrs by CLSI-protocol based Mueller-Hinton Broth micro-dilution assay; assay type: functional
Klebsiella pneumoniae [7] = assay: Antibacterial activity against Klebsiella pneumoniae ATCC 700603 assessed as reduction in bacterial growth measured after 18 to 24 hrs by CLSI protocol-based Mueller-Hinton broth dilution method; assay type: functional; details: time 18-24 hrs
Escherichia coli [8] = assay: Antibacterial activity against multi-drug resistant Escherichia coli clinical isolate 850 assessed as reduction in bacterial growth measured after 18 to 24 hrs by CLSI protocol-based Mueller-Hinton broth dilution method; assay type: functional; details: time 18-24 hrs
Staphylococcus aureus [9] = assay: Antibacterial activity against Methicillin-resistant Staphylococcus aureus 936 assessed as bacterial growth inhibition measured for 18 hrs by CLSI-protocol based Mueller-Hinton Broth micro-dilution assay; assay type: functional
Acinetobacter baumannii [10] = assay: Antibacterial activity against multi-drug resistant Acinetobacter baumannii clinical isolate 9840 assessed as reduction in bacterial growth measured after 18 to 24 hrs by CLSI protocol-based Mueller-Hinton broth dilution method; assay type: functional; details: time 18-24 hrs
Bacillus subtilis [11] = assay: Antibacterial activity against Bacillus subtilis ATCC 23857 assessed as reduction in bacterial growth measured after 18 to 24 hrs by CLSI protocol-based Mueller-Hinton broth dilution method; assay type: functional; details: time 18-24 hrs
Staphylococcus aureus [12] = assay: Antibacterial activity against Staphylococcus aureus ATCC 25923 assessed as reduction in bacterial growth incubated for 24 hrs by serial dilution method; assay type: functional
Enterococcus faecium [13] = assay: Antibacterial activity against Enterococcus faecium ATCC 700221 assessed as reduction in bacterial cell growth by CLSI broth microdilution method; assay type: functional
Pseudomonas aeruginosa [14] = assay: Antibacterial activity against Pseudomonas aeruginosa ATCC 27853 assessed as reduction in bacterial growth by broth microdilution method; assay type: functional
Escherichia coli [15] = assay: Antibacterial activity against Escherichia coli ATCC 25922 assessed as bacterial growth inhibition measured after 48 hrs by resazurin assay; assay type: functional
[16] = test system: Staphylococcus epidermidis; assay: Antibacterial activity against Staphylococcus epidermidis assessed as reduction in microbial growth; assay type: functional
[17] = Hemolytic activity in human RBC; assay type: toxicity, cell-based, Erythrocyte; details: red blood cells
Enterococcus faecalis = assay: Antibacterial activity against Enterococcus faecalis assessed as reduction in microbial growth; assay type: functional
Pseudomonas aeruginosa [18] = assay: Antibacterial activity against Pseudomonas aeruginosa ATCC 15442 assessed as growth inhibition; assay type: functional
Staphylococcus aureus [19] = assay: Antibacterial activity against Staphylococcus aureus ATCC 25923 assessed as reduction in bacterial growth incubated for 18 to 24 hrs by broth microdilution method; assay type: functional; details: time 18-24 hrs
Escherichia coli [20] = assay: Antibacterial activity against Escherichia coli ATCC 25922 assessed as reduction in bacterial growth by broth microdilution method; assay type: functional
Acinetobacter baumannii [21] = assay: Antibacterial activity against Acinetobacter baumannii assessed as bacterial growth inhibition; assay type: functional
Klebsiella pneumoniae [22] = assay: Antibacterial activity against Klebsiella pneumoniae; assay type: functional
Bacillus subtilis [23] = assay: Antibacterial activity against Bacillus subtilis assessed as reduction in microbial growth; assay type: functional

Row | Compound | HC50 [2] | MIC (Pseudomonas aeruginosa [4]) | MIC (Staphylococcus aureus [5]) | MIC (Staphylococcus aureus [6]) | MIC (Klebsiella pneumoniae [7]) | MIC (Escherichia coli [8]) | MIC (Staphylococcus aureus [9]) | MIC (Acinetobacter baumannii [10]) | MIC (Bacillus subtilis [11]) | further results
1 | CC[C@H](C)[C@H](NC(=O)[C@H](CCCCN)NC(=O)[C@H](CCCCN)NC(=O)[C@H](CC(C)C)NC(=O)[C@H](CC(C)C)NC(=O)CN)C(=O)N[C@@H](CCCCN)C(=O)N[C@H](C(=O)N[C@@H](CC(C)C)C(=O)N[C@@H](CC(C)C)C(N)=O)[C@@H](C)O | 269 µM |  |  |  |  |  |  |  |  | MIC (Pseudomonas aeruginosa [1]): 56.8 µM (≈ 63.9 µg/mL); MIC (Enterococcus faecium [3]): 171 µM (≈ 192 µg/mL)
2 | CC[C@H](C)[C@H](NC(=O)[C@H](CCCNC(=N)N)NC(=O)[C@@H](CCCCN)NC(=O)[C@H](CC(C)C)NC(=O)[C@H](CC(C)C)NC(=O)CNC(=O)[C@H](CCCCn1cc(CC(NC(=O)[C@H](CC(C)C)NC(=O)[C@H](CC(C)C)NC(=O)[C@@H](NC(=O)[C@@H](CCCCN)NC(=O)[C@@H](NC(=O)[C@H](CCCNC(=N)N)NC(=O)[C@@H](CCCCN)NC(=O)[C@H](CC(C)C)NC(=O)[C@H](CC(C)C)NC(=O)CNC(C)=O)[C@@H](C)CC)[C@@H](C)O)C(N)=O)nn1)NC(C)=O)C(=O)N[C@H](CCCCN)C(=O)N[C@H](C(=O)N[C@@H](CC(C)C)C(=O)N[C@@H](CC(C)C)C(N)=O)[C@@H](C)O (stereo partly drawn) |  | 16 µM (≈ 42.2 µg/mL) | 128 µM (≈ 338 µg/mL) | 64 µM (≈ 169 µg/mL) | 32 µM (≈ 84.5 µg/mL) | 32 µM (≈ 84.5 µg/mL) | 64 µM (≈ 169 µg/mL) | 4 µM (≈ 10.6 µg/mL) | 2 µM (≈ 5.28 µg/mL) | 
3 | CC[C@H](C)[C@H](NC(=O)[C@H](CCCNC(=N)N)NC(=O)[C@@H](CCCCN)NC(=O)[C@H](CC(C)C)NC(=O)[C@H](CC(C)C)NC(=O)CNC(C)=O)C(=O)N[C@H](CCCCN)C(=O)N[C@H](C(=O)N[C@@H](CC(C)C)C(=O)N[C@@H](CC(C)C)C(=O)NC(Cc1cn(CCCC[C@H](NC(=O)[C@H](CC(C)C)NC(=O)[C@H](CC(C)C)NC(=O)[C@@H](NC(=O)[C@@H](CCCCN)NC(=O)[C@@H](NC(=O)[C@H](CCCNC(=N)N)NC(=O)[C@@H](CCCCN)NC(=O)[C@H](CC(C)C)NC(=O)[C@H](CC(C)C)NC(=O)CNC(C)=O)[C@@H](C)CC)[C@@H](C)O)C(N)=O)nn1)C(N)=O)[C@@H](C)O (stereo partly drawn) |  | 16 µM (≈ 42.2 µg/mL) | 128 µM (≈ 338 µg/mL) | 128 µM (≈ 338 µg/mL) | 64 µM (≈ 169 µg/mL) | 16 µM (≈ 42.2 µg/mL) | 128 µM (≈ 338 µg/mL) | 4 µM (≈ 10.6 µg/mL) | 4 µM (≈ 10.6 µg/mL) | 
4 | CC[C@H](C)[C@H](NC(=O)[C@H](CCCNC(=N)N)NC(=O)[C@H](CCCCN)NC(=O)[C@H](CC(C)C)NC(=O)[C@H](CC(C)C)NC(=O)CN)C(=O)N[C@@H](CCCCN)C(=O)N[C@@H](CCCCN)C(=O)N[C@@H](CC(C)C)C(=O)N[C@@H](CC(C)C)C(N)=O (H-GLLKRIKKLL-NH2) | > 312 µM |  |  |  |  |  |  |  |  | MIC (Staphylococcus aureus [12]): 4.2 µM (≈ 4.96 µg/mL); MIC (Enterococcus faecium [13]): 66.3 µM (≈ 78.3 µg/mL); MIC (Pseudomonas aeruginosa [14]): 28.4 µM (≈ 33.5 µg/mL); MIC (Escherichia coli [15]): 8.5 µM (≈ 10 µg/mL)
5 | CC[C@H](C)[C@H](NC(=O)[C@H](CCCNC(=N)N)NC(=O)[C@H](CCCCN)NC(=O)[C@H](CC(C)C)NC(=O)[C@H](CC(C)C)NC(=O)CN)C(=O)N[C@@H](CCCCN)C(=O)N[C@H](C(=O)N[C@@H](CC(C)C)C(=O)N[C@@H](C)C(N)=O)[C@@H](C)O (H-GLLKRIKTLA-NH2) |  |  |  |  |  |  |  |  |  | MIC [16]: 64 µM; HC50 [17]: ≥ 512 µM; MIC (Enterococcus faecalis): ≥ 512 µM; MIC (Pseudomonas aeruginosa [18]): 64 µM (≈ 71.1 µg/mL); MIC (Staphylococcus aureus [19]): 43.2 µM (≈ 48 µg/mL); MIC (Escherichia coli [20]): 43.2 µM (≈ 48 µg/mL); MIC (Acinetobacter baumannii [21]): ≥ 512 µM; MIC (Klebsiella pneumoniae [22]): 256 µM (≈ 285 µg/mL); MIC (Bacillus subtilis [23]): 32 µM
